Laboratory results taken from patent US20220273678A1 (priority 2020, published 2022).
“Also recorded” adds a separate entry of the source. Where two headings read alike, the source gives them in different places.

What was measured:
[1] = test system: ACE2, CD147, NRP1 and TMPRSS2; experiment: Host entry factor protein levels in Calu3 cells, flow cytometry; assay type: cell-based, human; details: methanesulfonate
[2] = test system: SARS-CoV-2; experiment: K18-hACE2 mice infected with SARS-CoV-2 (wild type), lung viral titer and viral protein; assay type: in vivo
[3] = test system: IL-6, IL-10; assay type: cell-based, human
[4] = test system: Vero cells; experiment: XTT cell cytotoxicity assay in uninfected Vero cells; assay type: cell-based, African green monkey; details: uninfected cultures, 10-1000 nM
Experimental: To measure cell viability to determine if there was any treatment-induced cytotoxicity, cells were plated and treated with drugs as described above. Cells were exposed to the same dilution series created for the in vitro efficacy studies. As above, vehicle-treated cells served as the 0% cytotoxicity control. After 24 h, cell viability was measured on a Synergy 2 Biotek microplate reader (Biotek Inc) via the XTT Cell Proliferation Assay Kit (ATCC® 30-1011K™) according to the manufacturer's protocol. Similar data were obtained in three independent experiments.

[5] = test system: cleaved caspase 3; assay type: cell-based, African green monkey; details: Vero, methanesulfonate
[6] = test system: IFN-β, IFN-λ; assay type: cell-based, human; details: infected Calu3, 48 hpi, Mito-MES 100-1000 nM; methanesulfonate
[7] = test system: murine coronavirus hepatitis virus A-59 (MHV-A59); experiment: Mouse hepatitis virus A-59 in 17Cl-1 fibroblast cells; assay type: cell-based; details: mouse 17C1-1 fibroblast cells, 1000 nM
[8] = cited from earlier work
[9] = test system: SARS-CoV-2 wild type (WT); experiment: Lung inflammation in K18-hACE2 mice infected with SARS-CoV-2 wild type (cohort A, 3 dpi); assay type: in vivo
[10] = test system: mitochondrial reactive oxygen species (mito-ROS); experiment: Mitochondrial reactive oxygen species (MitoSOX Red) and ROS content in Calu3 cells; details: 1000 nM Mito-MES; methanesulfonate
Experimental: Flow cytometry was used to determine the cellular content of Calu3 cells for mitochondrial reactive oxygen species (mito-ROS) based on the median fluorescence intensity (MFI) of the fluorochrome MitoSOX Red and was compared to a negative cell population (fluorescence minus one negative control for staining) (ΔMFI). Flow cytometry was used to determine the percent of SARS-CoV-2 infected Calu3 cells positive for MitoSOX Red. Calu3 and Vero cells were treated with DMSO vehicle control (Ctrl) or the mitochondrial antioxidants MitoTEMPO (25-1000 nM) (72 h) or Mito-MES (25-1000 nM) (72 h) and were infected with a fluorescent mNeonGreen SARS-CoV-2 (icSARS-CoV-2-mNG) (MOI 0.3) (48 h). Immunofluorescent analysis of viral replication and cellular oxidative stress was performed at 48 hpi. […] Viral replication was determined by TCID50-assay (FIG. 3-d), cell cytotoxicity was assessed by the XTT assay in uninfected cells treated with dTPP (0.01-10 μM) (72 h) (FIG. 3-e). […]
After 24 h (or 48 h, experiments involving 4F) post-infection, cells were collected and stained with 5 μM MitoSOX Red Mitochondrial reactive oxygen species (mito-ROS) indicator for 30 min at 37° C. […] Cells were then analyzed using an LSR Fortessa flow cytometer and FACSDiva software (Becton & Dickinson, San Diego, Calif., USA), and data were analyzed using FlowJo software.

[11] = test system: SARS-CoV-2; experiment: microbe, parasite or virus in culture; assay type: cell-based

Structure (SMILES): COC1=C(OC)C(=O)C(CCCCCCCCCC[P+](c2ccccc2)(c2ccccc2)c2ccccc2)=C(C)C1=O.CS(=O)(=O)[O-] [Mito-MES, 10-(4,5-dimethoxy-2-methyl-3,6-dioxo-1,4-cyclohexadienyl) decyl triphenylphosphonium methanesulfonate]
- protein levels of ACE2, TMPRSS2, NRP1 and CD147 [1]: did not impact; also recorded: Neither SARS-CoV-2 infection nor Mito-MES significantly modulates protein levels
- reduction in SARS-CoV-2 viral titers in the lungs relative to vehicle ([2]; 4 mg/kg i.p. from 24 hours before infection, once per day): ~2 log units
- reduction in SARS-CoV-2 viral titers in the lungs relative to vehicle ([2]; 4 mg/kg, 8 hours after infection): 1.5 log units
- SARS-CoV-2 N protein among lung cell subtypes, flow cytometry ([2]; 3 dpi): had anti-SARS-CoV-2 activity in EPCAM(+) lung epithelial cells
- viral titers compared to controls (vehicle) ([2]; K18-hACE2 mice, 4 mg/kg per day intraperitoneally, 72 hpi): viral titers were lower
- reduction of the replication of SARS-CoV-2 ([2]; K18-hACE2 mice, overall): at least 2 orders of magnitude
- secretion / release of IL-6 [3]: attenuated SARS-CoV-2-induced increase in secretion of IL-6
- secretion of IL-10 [3]: reduced secretion of IL-10
- cytotoxicity, XTT cell cytotoxicity assay [4]: no observed cytotoxicity
- SARS-CoV-2-induced cleavage of caspase 3, immunofluorescence ([5]; Mito-MES 10-1000 nM): reduced SARS-CoV-2-induced increase in cleavage of caspase 3; also recorded: reduced by Mito-MES treatment
- percent of infected cells positive for cleaved caspase 3 and MFI of cleaved caspase 3 per cell, flow cytometry ([5]; Mito-MES 100 nM, 4F 10 μM): attenuated SARS-CoV-2-induced increase; also recorded: inhibits or reduces SARS-CoV-2-induced increase
- secreted and cellular IFN-β and IFN-λ [6]: did not impact increase in secreted and cellular IFN-β
- anti-MHV-A59 activity [7]: anti-MHV-A59 activity
- elimination half-life ([8]; based on post 4 h data): about 14 h
- lung tissue penetration ([8]; mice, 4 mg/kg/day): good lung tissue penetration
- accumulation in tissues including liver and kidney ([8]; mice, >10 days of oral supplementation): 50 to 700 pmol/g (wet weight)
- time of peak plasma concentration ([8]; oral administration): ≤ 1 h
- reduction in IL-6 in the lungs, Luminex ([9]; 4 mg/kg i.p. daily, 3 dpi): at least 2 orders of magnitude
- reduction in IL-lb in the lungs, Luminex ([9]; 4 mg/kg i.p. daily, 3 dpi): at least 2 orders of magnitude
- frequency of CD45+ immune cells in lungs, flow cytometry ([9]; 3 dpi): reduced frequency of CD45+ immune
- frequency of NK cells in lungs ([9]; 3 dpi): reduced frequency of NK cells
- levels of TNFa ([9]; WT SARS-CoV-2): did not change
- protein levels of IL-18 ([9]; cohort A and cohort B): did not change protein levels of IL-18
- frequency of neutrophils, macrophages, myeloid DCs, lymphoid DCs, T cells, B cells ([9]; lungs, flow cytometry): did not alter frequency
- ROS content of Calu3 cells [10]: increased the ROS content of Calu3 cells
- reduction of release of progeny virus, TCID50 analysis of cell supernatants ([11]; Calu3, 100 nM and 1000 nM Mito-MES): > 2 logs
- nucleocapsid protein expression, time-of-addition ([11]; Calu3, 1000 nM Mito-MES): inhibited nucleocapsid protein expression in Calu3 cells when added before infection (effect on viral entry) but also even when added 4 hours after infection
- antiviral activity by immunofluorescence and PCR ([11]; Calu3, 10-1000 nM, methanesulfonate): much more potent in Calu3 cells compared to Vero E6 cells; also recorded: potent antiviral activity against SARS-CoV-2 in Calu3 cells at concentrations as low as 10 nM
- Viral replication by flow cytometry at 48 hpi in Calu3 cells ([11]; DMF 10 μM, Mito-MES 100 nM, Mito-MES 100 nM+DMF 10 μM, […]): 2.4%
- Viral replication by flow cytometry at 48 hpi in Calu3 cells ([11]; Mito-MES 1000 nM, Brusatol 250 nM, Mito-MES 1000 nM+Brusatol 250 nM): 2.9%
- IC50 ([11]; Severe acute respiratory syndrome coronavirus 2, Calu-3, 48 h, read-out: IC50 (FIG. 1-i)): 20 nM
- IC50 ([11]; Severe acute respiratory syndrome coronavirus 2, Calu-3, 72 h, read-out: IC50, % inhibition of viral replication (FIG. 5-c)): 30 nM
- viral titers of infected cells vs vehicle control, TCID50-assay ([11]; […], 10 nM Mito-MES, 10 μM DMF, 100 nM 4F, alone or combined as labelled): reduced viral titers
- lowest concentration that resulted in an observable antiviral effect ([11]; human lung epithelial cells): 10 nM
